Test results published in patent US8247420B2, “Compositions, synthesis, and methods of using quinolinone based atypical antipsychotic agents” (Reviva Pharmaceuticals, Inc., priority 2007, dated 2012).
Structures can show the parent of a compound that is named as a salt.

Columns and labels:
[1] = target: T1, Dopamine, D2S (human recombinant) (Homo sapiens, UniProt P14416); assay: Dopamine, D2S (human recombinant) radioligand binding assay ([3H]Spiperone); details: human recombinant in CHO cells
T1 construct: expressed in transfected cells; host or cells: CHO cells
T1 sequence (P14416 1-414 isoform P14416-2): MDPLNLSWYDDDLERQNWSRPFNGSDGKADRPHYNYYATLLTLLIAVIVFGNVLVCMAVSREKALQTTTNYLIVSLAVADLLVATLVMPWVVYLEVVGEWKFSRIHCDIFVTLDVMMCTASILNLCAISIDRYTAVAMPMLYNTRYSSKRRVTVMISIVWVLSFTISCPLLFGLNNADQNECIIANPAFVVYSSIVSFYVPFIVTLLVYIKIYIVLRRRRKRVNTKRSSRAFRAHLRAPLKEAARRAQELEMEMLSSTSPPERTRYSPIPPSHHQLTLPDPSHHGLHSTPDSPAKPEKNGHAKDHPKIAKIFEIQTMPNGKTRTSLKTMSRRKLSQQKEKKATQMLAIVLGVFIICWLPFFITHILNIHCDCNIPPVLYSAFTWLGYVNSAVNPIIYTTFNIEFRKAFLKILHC
Experimental: The reactions were carried out in 50 mM TRIS-HCl (pH 7.4) containing 120 mM NaCl, 5 mM KCl, 5 mM MgCl2, 1 mM EDTA for 60 minutes at 25 C. The reaction was terminated by rapid vacuum filtration onto glass fiber filters. Radioactivity trapped onto the filters was determined and compared to control values in order to ascertain any interactions of test compounds with the cloned dopamine-D2 short binding site (Literature Reference: Jarvis, K. R. et al. Journal of Receptor Research 1993, 13(1-4), 573-590; Gundlach, A. L. et al. Life Sciences 1984, 35, 1981-1988.)
(§1) The radioligand binding assays for dopamine-D2S and serotonin-5HT1A were carried out at six different concentrations and the test concentrations were 1 nM, 5 nM, 10 nm 50 nM, 100 nM and 500 nM. The radioligand binding assays for serotonin-5HT2A were carried out at seven different concentrations and the test concentrations were 5 nM, 10 nM, 50 nM, 100 nM, 500 nM, 1 uM, and 300 uM.

[2] = target: T2, Serotonin, 5HT1A (human recombinant) (Homo sapiens, UniProt P08908); assay: Serotonin, 5HT1A (human recombinant) radioligand binding assay ([3H]-8-OH-DPAT); details: human recombinant in HEK-293 cells
T2 construct: expressed in transfected cells; host or cells: HEK-293 cells
T2 sequence (P08908 1-422): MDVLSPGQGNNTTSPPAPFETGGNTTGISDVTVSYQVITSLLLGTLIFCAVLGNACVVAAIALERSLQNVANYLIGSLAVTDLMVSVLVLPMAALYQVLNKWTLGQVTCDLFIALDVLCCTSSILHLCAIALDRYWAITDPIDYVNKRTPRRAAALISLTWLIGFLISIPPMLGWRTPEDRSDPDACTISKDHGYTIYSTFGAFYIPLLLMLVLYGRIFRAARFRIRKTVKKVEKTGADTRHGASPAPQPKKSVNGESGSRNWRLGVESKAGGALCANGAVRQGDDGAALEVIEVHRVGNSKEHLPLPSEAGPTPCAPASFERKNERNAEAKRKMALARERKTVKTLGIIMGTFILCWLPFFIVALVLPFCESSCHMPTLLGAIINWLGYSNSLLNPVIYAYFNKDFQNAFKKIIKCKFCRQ
Experimental: The reactions were carried out in 50 mM TRIS-HCl (pH 7.4) containing 10 mM MgSO4, 0.5 mM EDTA and 0.1% Ascorbic acid at room temperature for 1 hour. The reaction was terminated by rapid vacuum filtration onto glass fiber filters. Radioactivity trapped onto the filters was determined and compared to control values in order to ascertain any interactions of test compounds with the cloned serotonin-5HT1A binding site (Literature Reference: Hoyer, D. et al. Eur. Journal Pharmacol. 1985, 118, 13-23; Schoeffter, P. and Hoyer, D. Naunyn-Schmiedeberg's Arch. Pharmac. 1989, 340, 135-138)
as §1

[3] = target: Serotonin, 5HT2A (human) (Homo sapiens, UniProt P28223); assay: Serotonin, 5HT2A (human) radioligand binding assay ([3H]-Ketanserin); details: human cortex
Sequence of Serotonin, 5HT2A (human) (P28223 whole entry): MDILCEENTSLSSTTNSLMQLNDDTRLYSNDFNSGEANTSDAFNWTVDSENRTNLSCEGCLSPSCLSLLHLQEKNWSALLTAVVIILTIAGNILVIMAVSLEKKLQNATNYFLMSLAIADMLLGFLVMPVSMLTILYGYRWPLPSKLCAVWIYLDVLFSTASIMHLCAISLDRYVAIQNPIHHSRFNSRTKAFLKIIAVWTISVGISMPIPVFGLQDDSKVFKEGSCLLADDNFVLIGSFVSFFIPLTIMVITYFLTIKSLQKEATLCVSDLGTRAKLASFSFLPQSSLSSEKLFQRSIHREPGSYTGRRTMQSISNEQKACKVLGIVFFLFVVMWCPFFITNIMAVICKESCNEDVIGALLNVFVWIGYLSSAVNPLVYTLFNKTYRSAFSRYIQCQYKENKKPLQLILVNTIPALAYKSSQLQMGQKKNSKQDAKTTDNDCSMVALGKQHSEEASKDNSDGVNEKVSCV
Experimental: The reactions were carried out in 50 mM TRIS-HCl (pH 7.6) at room temperature for 90 minutes. The reaction was terminated by rapid vacuum filtration onto glass fiber filters. Radioactivity trapped onto the filters was determined and compared to control values in order to ascertain any interactions of test compounds with the serotonin-5HT2A binding site (Literature Reference: Leysen, J. E. et al. Mol. Pharmacol. 1982, 21, 301-314; Martin, G. R. and Humphrey, P. P. A. Neuropharmacol. 1994, 33(3/4), 261-273.)
as §1

IC50 [1] | Ki [1] | IC50 [2] | Ki [2] | IC50 [3] | Ki [3] | SMILES
5.83 nM | 1.69 nM | 6.61 nM | 3.93 nM | 456 nM | 239 nM | CCOC(=O)CCCOc1ccccc1N1CCN(CCCCOc2ccc3c(c2)NC(=O)CC3)CC1 [Compound 9a, Ethyl 4-(2-(4-(4-(2-oxo-1,2,3,4-tetrahydroquinolin-7-yloxy)butyl)piperazin-1-yl)phenoxy)butanoat hydrochloride]
72.9 nM | 17 nM | 28 nM | 16 nM | 253 nM | 147 nM | O=C1CCc2ccc(C(=O)OCCCN3CCN(c4cccc(Cl)c4Cl)CC3)cc2N1 [Compound 24b, 3-(4-(2,3-Dichlorophenyl)piperazin-1-yl)propyl 2-oxo-1,2,3,4-tetrahydroquinoline-7-carboxylate hydrochloride]

SMILES | IC50 [1] | Ki [1] | IC50 [2] | Ki [2] | IC50 [3] | Ki [3]
O=C1CCc2ccc(COC(=O)CCCN3CCN(c4cccc(Cl)c4Cl)CC3)cc2N1 [Compound 39d, (2-Oxo-1,2,3,4-tetrahydroquinolin-7-yl)methyl 4-(4-(2,3-dichlorophenyl)piperazin-1-yl)butanoate] | 54.7 nM | 12.8 nM | 85 nM | 48.5 nM | 313 nM | 171 nM
